Reference: patent US8580814B2, “Methods of using (+)-1,4-dihydro-7-[(3S,4S)-3-methoxy-4-(methylamino)-1-pyrrolidinyl]-4- oxo-1-(2-thiazolyl)-1,8-naphthyridine-3-carboxylic acid for treatment of cancer” (priority 2006, dated 2013)
Values joined by “and” are separate entries in the source; they are usually repeats but may differ in a detail not shown here. Equal entries are not always repeated.

Columns and labels:
refractory solid tumors = assay: Clinical activity in patients with advanced solid tumors; format: in vivo, human; design: key to Best Response: partial response (PR); stable disease SD; Partial/Minor Responses (PR/MR); details: for Iliac node: Baseline 5.5; for RMLL Lung / Rectosigmoid: Baseline 2.5; for RML Lung: Baseline 3.9; for RUL Lung: Baseline 4.7; for Liver met: Baseline 7.4
Method: The administered dose of SNS-595 can be delivered as a single dose such as, for example, an IV push of 10-15 minutes duration (e.g. a single bolus injection) or over time such as, for example, a 24-hour period (e.g., continuous infusion over time or divided bolus doses over time) and is repeated as necessary, for example, until the patient experiences stable disease or regression, or until the patient experiences disease progression or unacceptable toxicity. For example, stable disease for solid tumors generally means that the perpendicular diameter of measurable lesions has not increased by 25% or more from the last measurement. See e.g., Response Evaluation Criteria in Solid Tumors (RECIST) Guidelines, Journal of the National Cancer Institute 92(3): 205-216 (2000). Stable disease or lack thereof is determined by methods known in the art such as evaluation of patient symptoms, physical examination, visualization of the tumor that has been imaged using X-ray, CAT, PET, or MRI scan and other commonly accepted evaluation modalities.
SNS-595 was administered to patients with advanced solid cancers as an IV infusion over 10 minutes on 2 schedules. In the first schedule (A), a weekly dose of SNS-595 was administered for three weeks followed by at least 7 days off (qwk×3). In the second schedule (B), a dose of SNS-595 was administered once every three weeks (q3wk).
In both schedules, the starting dose of SNS-595 was 3 mg/m^2, and doses were escalated by sequential cohorts of 3. The doses were doubled until the first related adverse event at or above Grade 2 or until the first abnormal lab value. The doses were then escalated by a modified Fibonacci schema.
In study A, 21 patients (9 male, 12 female) were treated in 6 cohorts (dose range 3-24 mg/m^2/wk). In study B, 41 (25 male, 16 female) patients were treated in 9 cohorts (dose range 3-75 mg/m^2/wk). The median ages were 61 yrs (Study A) and 59 yrs (Study B), sex 12F/9M (Study A), 16F/25M (Study B), all patients had baseline European Cooperative Oncology Group Performance Status (ECOG PS) 0-2. Patient eligibility included refractory solid tumors and adequate organ function.

[1] = tested on: HCT-116 cells treated with 2 mM caffeine; assay: MTT assay, sensitization (caffeine); format: cell-based; details: 2 mM caffeine pre-treated for 16 hours, compound 72 hours
Method: Cells were then incubated with 5% MTT for 1-2 hours and lysed. MTT was colorimetrically read at 570 nm and EC50's were determined using linear regression analysis.
Sensitization was carried out with various chemical treatments.

[2] = both studies, advanced solid cancers
[3] = initial dosage 3 mg/m^2, q3wk, Lung
[4] = initial dosage 6 mg/m^2, q3wk, Renal Cell
[5] = initial dosage 6 mg/m^2, qwk x3, Renal Cell
[6] = initial dosage 12 mg/m^2, q3wk, Lung
[7] = initial dosage 12 mg/m^2, qwk x3, Leiomyosarcoma
[8] = initial dosage 12 mg/m^2, qwk x3, Melanoma
[9] = initial dosage 15 mg/m^2, qwk x3, Mesothelioma (two patients)
[10] = initial dosage 15 mg/m^2, qwk x3, Nasopharyngeal
[11] = initial dosage 24 mg/m^2, q3wk, Adenocarcinoma (unknown origin)
[12] = initial dosage 24 mg/m^2, qwk x3, Salivary Gland
[13] = initial dosage 36 mg/m^2, q3wk, Colon
[14] = initial dosage 36 mg/m^2, q3wk, Ovarian
[15] = initial dosage 48 mg/m^2, q3wk, Lung
[16] = initial dosage 48 mg/m^2, q3wk, Ovarian (two patients)
[17] = initial dosage 60 mg/m^2, q3wk, Neuroendocrine
[18] = initial dosage 60 mg/m^2, q3wk, Ovarian
[19] = initial dosage 75 mg/m^2, q3wk, Müllerian

Molecule `CN[C@H]1CN(c2ccc3c(=O)c(C(=O)O)cn(-c4nccs4)c3n2)C[C@@H]1OC` [SNS-595, (+)-1,4-dihydro-7-[(3S,4S)-3-methoxy-4-(methylamino)-1-pyrrolidinyl]-4-oxo-1-(2-thiazolyl)-1,8-naphthyridine-3-carboxylic acid] has a P-aortic node (refractory solid tumors; PR patient, Ovarian, C2, Baseline 1.7) of 1.6 cm, an Aortic node (refractory solid tumors; PR patient, Ovarian, C2, Baseline 2.4) of 2.0 cm and an Iliac node (refractory solid tumors; PR patient, Ovarian, C2) of 5.0 cm. The CA125 (refractory solid tumors; PR patient, Ovarian, C2, Baseline 467) was 272 U/mL, the P-aortic node (refractory solid tumors; PR patient, Ovarian, C4, Baseline 1.7) was 1.5 cm and the Aortic node (refractory solid tumors; PR patient, Ovarian, C4, Baseline 2.4) was 2.2 cm. The Iliac node (refractory solid tumors; PR patient, Ovarian, C4) was 4.7 cm, the CA125 (refractory solid tumors; PR patient, Ovarian, C4, Baseline 467) was 176 U/mL and the P-aortic node (refractory solid tumors; PR patient, Ovarian, C6, Baseline 1.7) was 1.3 cm. For the same molecule, the Aortic node (refractory solid tumors; PR patient, Ovarian, C6, Baseline 2.4) was 2.0 cm, the Iliac node (refractory solid tumors; PR patient, Ovarian, C6) was 3.9 cm and the CA125 (refractory solid tumors; PR patient, Ovarian, C6, Baseline 467) was 120 U/mL. The “RMLL Lung” value (refractory solid tumors; SD (MR) patient, Müllerian, C2) was 2.5 cm, the “RML Lung” value (refractory solid tumors; SD (MR) patient, Müllerian, C2) was 3.9 cm and the “RUL Lung” value (refractory solid tumors; SD (MR) patient, Müllerian, C2) was 4.5 cm. For the same molecule, the “RMLL Lung” value (refractory solid tumors; SD (MR) patient, Müllerian, C4) was 2.5 cm, the “RML Lung” value (refractory solid tumors; SD (MR) patient, Müllerian, C4) was 3.7 cm and the “RUL Lung” value (refractory solid tumors; SD (MR) patient, Müllerian, C4) was 4.5 cm. The “RMLL Lung” value (refractory solid tumors; SD (MR) patient, Müllerian, C6) was 2.6 cm, the “RML Lung” value (refractory solid tumors; SD (MR) patient, Müllerian, C6) was 2.4 cm and the “RUL Lung” value (refractory solid tumors; SD (MR) patient, Müllerian, C6) was 5.0 cm. The “Left upper lobe nodule” value (refractory solid tumors; SD (MR) patient, Nasopharyngeal, C2, Baseline 1.1) was 1.0 cm, the “Rt upper lobe nodule 2” value (refractory solid tumors; SD (MR) patient, Nasopharyngeal, C2, Baseline 1.5) was 1.3 cm and the Lingular nodule (refractory solid tumors; SD (MR) patient, Nasopharyngeal, C2, Baseline 1.6) was 1.5. The “Rt upper lobe nodule 1” value (refractory solid tumors; SD (MR) patient, Nasopharyngeal, C2, Baseline 2.3) was 1.5 cm, the Aortic node (refractory solid tumors; SD (MR) patient, Ovarian (first), C2, Baseline 1.7) was 1.5 cm and the P-aortic node (refractory solid tumors; SD (MR) patient, Ovarian (first), C2, Baseline 1.8) was 1.1 cm. For the same molecule, the Liver met (refractory solid tumors; SD (MR) patient, Ovarian (first), C2) was 6.9 cm, the CA125 (refractory solid tumors; SD (MR) patient, Ovarian (first), C2, Baseline 567) was 811 U/mL and the Aortic node (refractory solid tumors; SD (MR) patient, Ovarian (first), C4, Baseline 1.7) was 1.2 cm. It also gave a P-aortic node (refractory solid tumors; SD (MR) patient, Ovarian (first), C4, Baseline 1.8) of 1.1 cm, a Liver met (refractory solid tumors; SD (MR) patient, Ovarian (first), C4) of 5.7 cm and a CA125 (refractory solid tumors; SD (MR) patient, Ovarian (first), C4, Baseline 567) of 419 U/mL. It also gave an Aortic node (refractory solid tumors; SD (MR) patient, Ovarian (first), C6, Baseline 1.7) of 1.8 cm, a P-aortic node (refractory solid tumors; SD (MR) patient, Ovarian (first), C6, Baseline 1.8) of 1.2 cm and a Liver met (refractory solid tumors; SD (MR) patient, Ovarian (first), C6) of 5.7 cm. It also gave a CA125 (refractory solid tumors; SD (MR) patient, Ovarian (first), C6, Baseline 567) of 274 U/mL, a 3 mets (refractory solid tumors; SD (MR) patient, Ovarian (second)) of 3 mets unchanged and a Rectosigmoid (refractory solid tumors; SD (MR) patient, Ovarian (second), C2) of 0.0 cm. It also gave a CA125 (refractory solid tumors; SD (MR) patient, Ovarian (second), C2, Baseline 50) of 18 U/mL, a Rectosigmoid (refractory solid tumors; SD (MR) patient, Ovarian (second), C4) of 0.0 cm and a CA125 (refractory solid tumors; SD (MR) patient, Ovarian (second), C4, Baseline 50) of 16 U/mL. The Rectosigmoid (refractory solid tumors; SD (MR) patient, Ovarian (second), C6) was 0.0 cm, the CA125 (refractory solid tumors; SD (MR) patient, Ovarian (second), C6, Baseline 50) was 15 U/mL and the “Best Response” value (refractory solid tumors; Table 11, Müllerian) was “SD (MR)”. The “Best Response” value (refractory solid tumors; Table 11, Nasopharyngeal) was “SD (MR)”, the “Best Response” value (refractory solid tumors; Table 11, Ovarian (three patients)) was “SD (MR) and PR” and the “patients that achieved partial responses” value (refractory solid tumors; [2]) was “two patients”. The “patients that achieved stable disease for over sixteen weeks” value (refractory solid tumors; [2]) was “seventeen patients”, the “Best Response” value (refractory solid tumors; [3]) was “SD” and the “Weeks on Therapy” value (refractory solid tumors; [3]) was 18 Weeks. The “Best Response” value (refractory solid tumors; [4]) was “SD”, the “Weeks on Therapy” value (refractory solid tumors; [4]) was 18 Weeks and the “Best Response” value (refractory solid tumors; [5]) was “SD”. For the same molecule, the “Weeks on Therapy” value (refractory solid tumors; [5]) was 16 Weeks, the “Best Response” value (refractory solid tumors; [6]) was “SD” and the “Weeks on Therapy” value (refractory solid tumors; [6]) was 53 Weeks. For the same molecule, the “Best Response” value (refractory solid tumors; [7]) was “SD”, the “Weeks on Therapy” value (refractory solid tumors; [7]) was 16 Weeks and the “Best Response” value (refractory solid tumors; [8]) was “SD”. The “Weeks on Therapy” value (refractory solid tumors; [8]) was 16 Weeks, the “Best Response” value (refractory solid tumors; [9]) was “PR and SD” and the “Weeks on Therapy” value (refractory solid tumors; [9]) was 28 Weeks and 18 Weeks. The “Best Response” value (refractory solid tumors; [10]) was “SD”, the “Weeks on Therapy” value (refractory solid tumors; [10]) was 16 Weeks and the “Best Response” value (refractory solid tumors; [11]) was “SD”. For the same molecule, the “Weeks on Therapy” value (refractory solid tumors; [11]) was 18 Weeks, the “Best Response” value (refractory solid tumors; [12]) was “SD” and the “Weeks on Therapy” value (refractory solid tumors; [12]) was 24 Weeks. The “Best Response” value (refractory solid tumors; [13]) was “SD”, the “Weeks on Therapy” value (refractory solid tumors; [13]) was 33 Weeks and the “Best Response” value (refractory solid tumors; [14]) was “SD”. For the same molecule, the “Weeks on Therapy” value (refractory solid tumors; [14]) was 18 Weeks, the “Best Response” value (refractory solid tumors; [15]) was “SD” and the “Weeks on Therapy” value (refractory solid tumors; [15]) was 46 Weeks. The “Best Response” value (refractory solid tumors; [16]) was “PR and SD”, the “Weeks on Therapy” value (refractory solid tumors; [16]) was 24 Weeks and 30 Weeks and the “Best Response” value (refractory solid tumors; [17]) was “SD”. The “Weeks on Therapy” value (refractory solid tumors; [17]) was 58 Weeks, the “Best Response” value (refractory solid tumors; [18]) was “SD” and the “Weeks on Therapy” value (refractory solid tumors; [18]) was 33 Weeks. The “Best Response” value (refractory solid tumors; [19]) was “SD”, the “Weeks on Therapy” value (refractory solid tumors; [19]) was 46 Weeks and the “stable disease SD, range” value (refractory solid tumors; study A (qwk×3)) was 16-24 wks. For the same molecule, the “patients that achieved partial response (PR)” value (refractory solid tumors; study A (qwk×3), 21 patients) was “one patient”, the “patients that achieved stable disease SD” value (refractory solid tumors; study A (qwk×3), 21 patients) was “six” and the “patients with PR as best response” value (refractory solid tumors; study B (q3wk), 41 patients) was “one PR”. For the same molecule, the “patients with SD as best response” value (refractory solid tumors; study B (q3wk), 41 patients) was 11 and the “Sensitization, fold decrease in the EC50 for cytotoxicity (MTT): Caffeine” value [1] was 0.5 fold.
